Measurements reported in BigSolDB 2.1.

CC(C)(C)c1cc(CCC(=O)OCC(COC(=O)CCc2cc(C(C)(C)C)c(O)c(C(C)(C)C)c2)(COC(=O)CCc2cc(C(C)(C)C)c(O)c(C(C)(C)C)c2)COC(=O)CCc2cc(C(C)(C)C)c(O)c(C(C)(C)C)c2)cc(C(C)(C)C)c1O
solubility (mole fraction)
Conditions | 293.15 K | 298.15 K | 303.15 K | 308.15 K | 313.15 K | 318.15 K | 323.15 K | 328.15 K | 333.15 K
in ethanol | 0.000302 | 0.000445 | 0.000685 | 0.00105 | 0.0016 | 0.00238 | 0.00351 | 0.0051 | 0.0074
in isopropanol | 0.000148 | 0.000239 | 0.000406 | 0.000631 | 0.000998 | 0.00158 | 0.00252 | 0.00411 | 0.00638
in methanol | 0.000221 | 0.000332 | 0.000544 | 0.000812 | 0.00126 | 0.00203 | 0.00287 | 0.00429 | 0.00726
